In BindingDB's records for patent US9572811 (Principia Biopharma, 2017) one finds IC50 data, which are given here for one compound.

The test deals with Tyrosine-protein kinase BTK (Homo sapiens, UniProt Q06187). The test can be described thus: Caliper-based kinase assay. As to conditions: 25 °C.
Tyrosine-protein kinase BTK, sequence (Q06187 whole entry): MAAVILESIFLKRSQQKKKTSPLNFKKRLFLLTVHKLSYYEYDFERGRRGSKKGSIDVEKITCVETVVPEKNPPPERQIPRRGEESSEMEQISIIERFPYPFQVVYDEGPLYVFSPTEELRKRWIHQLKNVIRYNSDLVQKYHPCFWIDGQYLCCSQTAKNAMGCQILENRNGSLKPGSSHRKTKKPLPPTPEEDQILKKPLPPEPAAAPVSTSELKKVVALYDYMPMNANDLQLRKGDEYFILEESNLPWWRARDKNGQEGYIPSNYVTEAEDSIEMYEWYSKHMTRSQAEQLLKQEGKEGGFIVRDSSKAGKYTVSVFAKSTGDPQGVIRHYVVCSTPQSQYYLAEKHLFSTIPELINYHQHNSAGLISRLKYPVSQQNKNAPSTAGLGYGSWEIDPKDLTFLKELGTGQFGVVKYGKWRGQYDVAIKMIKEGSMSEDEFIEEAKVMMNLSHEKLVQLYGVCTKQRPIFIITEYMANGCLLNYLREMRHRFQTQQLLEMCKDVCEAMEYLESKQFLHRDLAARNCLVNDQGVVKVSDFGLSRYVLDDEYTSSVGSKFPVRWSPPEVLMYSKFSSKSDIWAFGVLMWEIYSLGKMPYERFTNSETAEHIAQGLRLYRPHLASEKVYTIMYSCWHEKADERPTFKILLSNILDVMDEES

Method: A Caliper-based kinase assay (Caliper Life Sciences, Hopkinton, Mass.) was used to measure inhibition of Btk kinase activity of a compound of Formula (I). […] The reaction was then terminated with EDTA, final concentration 20 mM and the phosphorylated reaction product was quantified on a Caliper Desktop Profiler (Caliper LabChip 3000).

`CN(CCn1nc(-c2ccc(Oc3ccccc3)cc2)c2c(N)ncnc21)C(=O)C(C#N)=CC1CC1` [US9572811, Example 36A] showed a 50% inhibitory concentration (IC50) of 4.3 nM.
